The values below are quoted from earlier work in article PMC3726058 (European journal of pharmacology, 2010).

The structures appear in SMILES notation.

One data set relates to σ1 over the σ2 subtype. The settings on record: ref Bowen, 1993.
A further data set concerns σ1 versus σ2. To be noted: rat brain membranes; ref Klouz et al., 2003; Matsuno et al., 1996.
A further data set concerns the target adrenergic α2. To be noted: read-out: Ki α2; ref Yous et al., 2005.
The next data set concerns the target histamine H1. To be noted: read-out: Ki H1; ref Yous et al., 2005.

Regarding `CC(C)=CCN1CC[C@]2(C)c3cc(O)ccc3C[C@H]1[C@H]2C` [[^3H](+)-Pentazocine], in the data set with σ1 over the σ2 subtype, the “preference for σ1 over σ2 subtype” value is greater than 700 fold.
For `COc1ccc(CCN2CCN(CCCc3ccccc3)CC2)cc1OC` [SA4503], the “affinity for σ1 versus σ2” value with σ1 versus σ2 was “approximately 100 fold”.
Consider `COc1ccc(CN2CCN(Cc3ccccc3)CC2)c(O)c1OC` [BHDP], for which the “affinity for σ1 versus σ2” value with σ1 versus σ2 is listed as “approximately 100 fold”.
As for `CCCc1ccc2c(c1)sc(=O)n2CCN1CCCCCC1` [SN56, 3-(2-(azepan-1-yl)ethyl)-6-propylbenzo[d]thiazol-2(3H)-one], the inhibitory constant (Ki) (commonly a measure of affinity in units of concentration, obtained from inhibition or displacement) on adrenergic α2 was 205 nM; at histamine H1 it was 311 nM.
